This is an account of results in patent publication US11505536B2, “Dihydroorotate dehydrogenase inhibitors” (Janssen Biotech, Inc., priority 2019, dated 2022).

SMILES strings stand for the structures. pIC50: −log10 of the molar value. Some results are limits rather than exact numbers.

The subject of assay [1] is MOLM-13 cells (human acute myeloid leukemia cells). In words: MOLM-13 Cellular Assay. Format: cell-based. As to conditions: 72 hours exposure, cell viability by CellTiter-Glo. As for the experimental part: The following assay is referred to herein as the “MOLM-13 Cellular Assay.” MOLM-13 cells (human acute myeloid leukemia cells) were obtained from DSMZ and were maintained in RPMI 1640+Glutamax+25 mM HEPES (Invitrogen, catalog number 72400) supplemented with 10% heat inactivated fetal bovine serum (FBS; Invitrogen, catalog number 16140). The day prior to assay set-up, cells were pelleted, resuspended in fresh media, counted, and cells were plated at 0.4×10^6 cell/mL in a T150 flask. On the day of the assay, cells were pelleted, resuspend in fresh media, counted and seeded at 5,000 cells/well in white opaque 96-well tissue culture treated microplates (Perkin Elmer, catalog number 6005680). Cells were exposed to different concentrations of test compounds at 37° C., 5% CO2 for 72 hours immediately after seeding. Cell viability was acquired on a Perkin Elmer Envision 2104 multilabel reader using the CellTiter-Glo assay (Promega) according to the manufacturer's instructions.
On the technique in general: ATP-based viability assays read luminescence as a measure of living cells.

Assay [2] addresses human DHODH (Homo sapiens (Human), UniProt Q02127). The assay can be described thus: DHODH Enzymatic Assay. It is filed as biochemical. The note with it: purified human DHODH, DCIP absorbance, end-point mode; read-out: hDHODH IC50. On the procedure: The following assay is referred to herein as the “DHODH Enzymatic Assay.” To detect DHODH enzyme activities, dichloroindophenol (DCIP) is added as the final electron acceptor in the assay. DCIP can accept electrons from the reduced coenzyme Q generated in the assay, or from dihydroorotate (DHO) via FMN by binding presumably to the ubiquinone pocket. DCIP solutions are blue, with an intense absorbance around 600 nm, but becomes colorless upon reduction (J. Biol. Chem. (1986) 261, 11386). The assay buffer contained […], pH 7.5, 150 mM NaCl, 0.5 mM EDTA, and 0.1% Triton X-100 in MilliQ water. Substrate consisting of 20 mM DHO, 5 mM CoQ6, and 1 mM DCIP in assay buffer, initiates the reaction. The assay is run in end-point mode by quenching the reaction with the potent DHODH inhibitor brequinar. Absorbance measurements were obtained using the BMG Phera Star plate-reading spectrophotomer. Purified human DHODH was purchased from Proteros (cat. No. PR-0044). Chemicals were purchased from Sigma-Aldrich, Teknova, and Avanti Polar Lipids. Liquid handling was performed using Labcyte Echo and Formulatrix Tempest.

Sequence of human DHODH (Q02127 whole entry): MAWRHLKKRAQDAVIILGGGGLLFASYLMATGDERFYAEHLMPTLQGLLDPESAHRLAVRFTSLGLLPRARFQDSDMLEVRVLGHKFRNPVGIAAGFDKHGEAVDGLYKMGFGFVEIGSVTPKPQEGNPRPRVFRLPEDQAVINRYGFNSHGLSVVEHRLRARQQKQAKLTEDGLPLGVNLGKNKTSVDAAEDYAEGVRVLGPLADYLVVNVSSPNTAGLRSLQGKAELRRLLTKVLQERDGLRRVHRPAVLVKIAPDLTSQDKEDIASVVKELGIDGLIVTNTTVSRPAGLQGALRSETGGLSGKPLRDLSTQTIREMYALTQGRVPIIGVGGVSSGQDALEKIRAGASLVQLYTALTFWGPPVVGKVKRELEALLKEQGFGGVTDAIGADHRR

Regarding `CCn1c(CO)nn(-c2cc3c(C(C)C)cn(-c4ccnc(OC)c4Cl)c(=O)c3cc2F)c1=O` [Example 106, 2-(3-Chloro-2-methoxypyridin-4-yl)-6-(4-ethyl-3-(hydroxymethyl)-5-oxo-4,5-dihydro-1H-1,2,4-triazol-1-yl)-7-fluoro-4-isopropylisoquinolin-1(2H)-one], the pIC50 (as a rule, the negative decadic logarithm of the IC50, by convention in mol/L) in assay [1] (Homo sapiens, MOLM-13, 72 h) is 8.00; in assay [2], 8.31.

With `CCn1c(CO)nn(-c2cc3c(C(C)C)cn(-c4nc(OC)ccc4Cl)c(=O)c3cc2F)c1=O` [Example 49, 2-(3-Chloro-6-methoxypyridin-2-yl)-6-(4-ethyl-3-(hydroxymethyl)-5-oxo-4,5-dihydro-1H-1,2,4-triazol-1-yl)-7-fluoro-4-isopropylisoquinolin-1(2H)-one], the pIC50 in assay [1] (Homo sapiens, MOLM-13, 72 h) was 8.70; in assay [2], 8.96.

Regarding `CCn1c(CO)nn(-c2cc3c(C(C)C)cn(CC4CC4)c(=O)c3cc2F)c1=O` [Example 115, 2-(Cyclopropylmethyl)-6-(4-ethyl-3-(hydroxymethyl)-5-oxo-4,5-dihydro-1H-1,2,4-triazol-1-yl)-7-fluoro-4-isopropylisoquinolin-1(2H)-one], the pIC50 in assay [1] (Homo sapiens, MOLM-13, 72 h) is 7.10; in assay [2], 7.29.

As to `C=C(C)c1cn(-c2ccccc2Cl)c(=O)c2ccc(-n3nc(CO)n(CC)c3=O)cc12` [Example 14, 2-(2-Chlorophenyl)-6-(4-ethyl-3-(hydroxymethyl)-5-oxo-4,5-dihydro-1H-1,2,4-triazol-1-yl)-4-(prop-1-en-2-yl)isoquinolin-1(2H)-one], the pIC50 is 9.40 in assay [1] (Homo sapiens, MOLM-13, 72 h) and 9.14 in assay [2].

Take `CCn1c(CO)nn(-c2ccc3c(=O)n(-c4c(F)cccc4Cl)ccc3c2)c1=O` [Example 10, 2-(2-Chloro-6-fluorophenyl)-6-(4-ethyl-3-(hydroxymethyl)-5-oxo-4,5-dihydro-1H-1,2,4-triazol-1-yl)isoquinolin-1(2H)-one]: the pIC50 in assay [1] (Homo sapiens, MOLM-13, 72 h) was 7.00; in assay [2], 6.46.

On to `CCn1c(CO)nn(-c2cc3c(C4(C)CC4)cn(-c4c(F)cccc4Cl)c(=O)c3cc2F)c1=O` [Example 58, 2-(2-Chloro-6-fluorophenyl)-6-(4-ethyl-3-(hydroxymethyl)-5-oxo-4,5-dihydro-1H-1,2,4-triazol-1-yl)-7-fluoro-4-(1-methylcyclopropyl)isoquinolin-1(2H)-one], for which the pIC50 was 8.40 in assay [1] (Homo sapiens, MOLM-13, 72 h) and 8.06 in assay [2].

Turning to `CCC(CC)n1cc(C(C)C)c2cc(-n3nc(CO)n(CC)c3=O)c(F)cc2c1=O` [Example 122, 6-(4-Ethyl-3-(hydroxymethyl)-5-oxo-4,5-dihydro-1H-1,2,4-triazol-1-yl)-7-fluoro-4-isopropyl-2-(pentan-3-yl)isoquinolin-1(2H)-one], the pIC50 in assay [1] (Homo sapiens, MOLM-13, 72 h) is 8.00; in assay [2], 7.87.

On to `CCn1c(CO)nn(-c2cc3c(C(C)C)cn(-c4cncnc4C)c(=O)c3cc2F)c1=O` [Example 94, 6-(4-Ethyl-3-(hydroxymethyl)-5-oxo-4,5-dihydro-1H-1,2,4-triazol-1-yl)-7-fluoro-4-isopropyl-2-(4-methylpyrimidin-5-yl)isoquinolin-1(2H)-one], for which the pIC50 was below 7.00 in assay [1] (Homo sapiens, MOLM-13, 72 h) and 6.25 in assay [2].

In the case of `C=C(C)c1cn(-c2c(C)cccc2F)c(=O)c2cc(F)c(-n3nc(CO)n(CC)c3=O)cc12` [Example 73, 6-(4-Ethyl-3-(hydroxymethyl)-5-oxo-4,5-dihydro-1H-1,2,4-triazol-1-yl)-7-fluoro-2-(2-fluoro-6-methylphenyl)-4-(prop-1-en-2-yl)isoquinolin-1(2H)-one], the pIC50 in assay [1] (Homo sapiens, MOLM-13, 72 h) was 9.15; in assay [2], 9.25.

In the case of `C=C(C)c1cn(-c2c(F)cccc2Cl)c(=O)c2cc(F)c(-n3nc(CO)n(CC)c3=O)nc12` [Example 35, 6-(2-Chloro-6-fluorophenyl)-2-(4-ethyl-3-(hydroxymethyl)-5-oxo-4,5-dihydro-1H-1,2,4-triazol-1-yl)-3-fluoro-8-(prop-1-en-2-yl)-1,6-naphthyridin-5(6H)-one], the negative logarithm of the IC50 (pIC50) in assay [1] (Homo sapiens, MOLM-13, 72 h) is 9.00; in assay [2], 8.94.

As to `CCn1c(CO)nn(-c2ccc3c(=O)n(-c4ccc([N+](=O)[O-])cc4F)cc(I)c3c2)c1=O` [Example 16, 6-(4-Ethyl-3-(hydroxymethyl)-5-oxo-4,5-dihydro-1H-1,2,4-triazol-1-yl)-2-(2-fluoro-4-nitrophenyl)-4-iodoisoquinolin-1(2H)-one], the pIC50 is 6.52 in assay [1] (Homo sapiens, MOLM-13, 72 h) and 5.93 in assay [2].

`CCn1c(CO)nn(-c2ccc3c(=O)n(-c4ccccc4C)cc(N(C)C)c3c2)c1=O` [Example 26, 4-(Dimethylamino)-6-(4-ethyl-3-(hydroxymethyl)-5-oxo-4,5-dihydro-1H-1,2,4-triazol-1-yl)-2-(o-tolyl)isoquinolin-1(2H)-one]: the pIC50 in assay [1] (Homo sapiens, MOLM-13, 72 h) was 7.70; in assay [2], 7.33.

Turning to `CCn1c(CO)nn(-c2nc3c(C)nn(-c4ccccc4C)c(=O)c3cc2F)c1=O` [Example 33, 2-(4-Ethyl-3-(hydroxymethyl)-5-oxo-4,5-dihydro-1H-1,2,4-triazol-1-yl)-3-fluoro-8-methyl-6-(o-tolyl)pyrido[2,3-d]pyridazin-5(6H)-one], the pIC50 in assay [1] (Homo sapiens, MOLM-13, 72 h) is below 7.00; in assay [2], 6.62.

Take `CCn1c(CO)nn(-c2cc3c(C(C)C)cn(-c4ccnc(O)c4C)c(=O)c3cc2F)c1=O` [Example 141, 6-(4-Ethyl-3-(hydroxymethyl)-5-oxo-4,5-dihydro-1H-1,2,4-triazol-1-yl)-7-fluoro-2-(2-hydroxy-3-methylpyridin-4-yl)-4-isopropylisoquinolin-1(2H)-one]: the negative logarithm of the IC50 (pIC50) in assay [1] (Homo sapiens, MOLM-13, 72 h) was below 7.00; in assay [2], 7.98.

On to `CCn1c(CO)nn(-c2cc3c(C(C)C)cn(-c4cc(O)ncc4C)c(=O)c3cc2F)c1=O` [Example 139, 6-(4-Ethyl-3-(hydroxymethyl)-5-oxo-4,5-dihydro-1H-1,2,4-triazol-1-yl)-7-fluoro-2-(2-hydroxy-5-methylpyridin-4-yl)-4-isopropylisoquinolin-1(2H)-one], for which the negative logarithm of the IC50 (pIC50) is below 7.00 in assay [1] (Homo sapiens, MOLM-13, 72 h) and 7.45 in assay [2].

For the compound `CCn1c(CO)nn(-c2nc3c(C(C)C)cn(-c4cc(C)ccc4F)c(=O)c3cc2F)c1=O` [Example 99, 2-(4-Ethyl-3-(hydroxymethyl)-5-oxo-4,5-dihydro-1H-1,2,4-triazol-1-yl)-3-fluoro-6-(2-fluoro-5-methylphenyl)-8-isopropyl-1,6-naphthyridin-5(6H)-one], the negative-log IC50 (pIC50) in assay [1] (Homo sapiens, MOLM-13, 72 h) is 8.15; in assay [2] it was 8.21.

As for `CCn1c(CO)nn(-c2cc3c(C(C)C)cn([C@H]4CCC[C@H]4C)c(=O)c3cc2F)c1=O` (stereo in doubt) [Example 126, 6-(4-Ethyl-3-(hydroxymethyl)-5-oxo-4,5-dihydro-1H-1,2,4-triazol-1-yl)-7-fluoro-4-isopropyl-2-((1S*,2R*)-2-methylcyclopentyl)isoquinolin-1(2H)-one], the pIC50 in assay [1] (Homo sapiens, MOLM-13, 72 h) was 9.00; in assay [2] it was 8.88.

Turning to `CCn1c(CO)nn(-c2cc3c(C(C)C)nn(-c4c(F)cccc4Cl)c(=O)c3cc2F)c1=O` [Example 54, 2-(2-Chloro-6-fluorophenyl)-6-(4-ethyl-3-(hydroxymethyl)-5-oxo-4,5-dihydro-1H-1,2,4-triazol-1-yl)-7-fluoro-4-isopropylphthalazin-1(2H)-one], the negative logarithm of the IC50 (pIC50) is 9.40 in assay [1] (Homo sapiens, MOLM-13, 72 h) and 9.36 in assay [2].

`CCn1c(CO)nn(-c2cc3c(C(C)C)nn(-c4ccccc4C)c(=O)c3cc2F)c1=O` [Example 53, 6-(4-Ethyl-3-(hydroxymethyl)-5-oxo-4,5-dihydro-1H-1,2,4-triazol-1-yl)-7-fluoro-4-isopropyl-2-(o-tolyl)phthalazin-1(2H)-one]: the pIC50 in assay [1] (Homo sapiens, MOLM-13, 72 h) was 9.15; in assay [2], 9.11.

Consider `C=C(C)c1cn(-c2ccccc2OC)c(=O)c2cc(F)c(-n3nc(CO)n(CC)c3=O)cc12` [Example 83, 6-(4-Ethyl-3-(hydroxymethyl)-5-oxo-4,5-dihydro-1H-1,2,4-triazol-1-yl)-7-fluoro-2-(2-methoxyphenyl)-4-(prop-1-en-2-yl)isoquinolin-1(2H)-one], for which the pIC50 was 9.70 in assay [1]; at least 9.70 in assay [1] (Homo sapiens, MOLM-13, 72 h); 9.35 in assay [2].

Consider `CCn1c(CO)nn(-c2cc3c(C(C)C)cn(-c4c(C)ccnc4Cl)c(=O)c3cc2F)c1=O` [Example 23, 2-(2-Chloro-4-methylpyridin-3-yl)-6-(4-ethyl-3-(hydroxymethyl)-5-oxo-4,5-dihydro-1H-1,2,4-triazol-1-yl)-7-fluoro-4-isopropylisoquinolin-1(2H)-one], for which the negative-log IC50 (pIC50) in assay [1] (Homo sapiens, MOLM-13, 72 h) is 8.52; in assay [2], 8.45.
